# Measurements: patent US20160272617A1, “SUBSTITUTED PHENYLALANINE DERIVATIVES” (BAYER PHARMA AKTIENGESELLSCHAFT, priority 2013, published 2016)
# Counter-ions that a name gives are not always drawn.
# Legend:
# [1] = target: T1, human plasmin (Homo sapiens, UniProt P00747); test: Measurement of plasmin inhibition (fluorogenic peptide substrate MeOSuc-Ala-Phe-Lys-AMC); format: biochemical; settings: plasmin from Kordia, 15 min preincubation, 30 min at 22° C., fluorescence
# T1 construct: purchased Kordia
# Experimental: The plasmin inhibition of the inventive substances is determined using a biochemical test system which utilizes the reaction of a peptidic plasmin substrate to determine the enzymatic activity of human plasmin. Here, plasmin cleaves from the peptic plasmin substrate the C-terminal aminomethylcoumarin (AMC), the fluorescence of which is measured. The determinations are carried out in microtitre plates.
# Test substances are dissolved in dimethyl sulphoxide and serially diluted in dimethyl sulphoxide (3000 μM to 0.0078 μM; resulting final concentrations in the test: 50 μM to 0.00013 μM). In each case 1 μl of the diluted substance solutions are placed into the wells of white microtitre plates from Greiner (384 wells). Subsequently, the following are added successively: 20 μl of assay buffer (50 mmol/Tris buffer pH 7.4; 100 mmol/l sodium chloride; 5 mmol/calcium chloride; 0.1% bovine serum albumin) and 20 μl of plasmin from Kordia (0.3 μg/ml in assay buffer) are then added successively. After 15 min of incubation, the enzyme reaction is started by addition of 20 μl of the plasmin substrate MeOSuc-Ala-Phe-Lys-AMC dissolved in assay buffer (150 μM in assay buffer) from Bachem, the mixture is incubated at room temperature (22° C.) for 30 min and fluorescence is then measured (excitation: 360 nm, emission: 460 nm). The measured emissions of the test batches with test substance are compared to those of control batches without test substance (only dimethyl sulphoxide instead of test substance in dimethyl sulphoxide), and the IC50 values are calculated from the concentration/activity relationships.
# [2] = target: T2, human factor XIa (Homo sapiens, UniProt P03951); test: Measurement of FXIa inhibition (fluorogenic peptide substrate Boc-Glu(OBzl)-Ala-Arg-AMC); format: biochemical; settings: factor XIa from Kordia, 15 min preincubation, 30 min at 22° C., fluorescence
# T2 construct: purchased Kordia
# Method in brief: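 Released AMC fluorescence (360/460 nm) read after 30 min at 22 °C. The reaction was started with Boc-Glu(OBzl)-Ala-Arg-AMC (10 μM stock) after a 15 min preincubation of the enzyme (0.45 nM stock) with compound (final 50 μM to 0.00013 μM).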
# [3] = system: human and animal plasma; test: Determination of anticoagulatory activity: activated partial thromboplastin time (aPTT) in plasma; settings: concentration of test substance which brings about a 1.5-fold extension of the aPTT; plasma species not given
# Method in brief: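 Citrated plasma (1:9, 0.11 M citrate; 4000 g, 15 min) from human or animal blood incubated with test compound and cephalin/kaolin PTT reagent for 3 min at 37° C.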
# T1 sequence (P00747 581-810 limits assumed): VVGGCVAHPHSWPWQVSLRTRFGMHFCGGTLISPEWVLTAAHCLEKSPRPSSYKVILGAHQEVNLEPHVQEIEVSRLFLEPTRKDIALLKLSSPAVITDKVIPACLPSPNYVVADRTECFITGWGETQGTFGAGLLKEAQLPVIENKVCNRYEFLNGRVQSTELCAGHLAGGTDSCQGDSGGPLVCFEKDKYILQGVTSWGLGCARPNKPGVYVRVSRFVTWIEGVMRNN
# T1 sequence (P00747 97-580 partner limits assumed): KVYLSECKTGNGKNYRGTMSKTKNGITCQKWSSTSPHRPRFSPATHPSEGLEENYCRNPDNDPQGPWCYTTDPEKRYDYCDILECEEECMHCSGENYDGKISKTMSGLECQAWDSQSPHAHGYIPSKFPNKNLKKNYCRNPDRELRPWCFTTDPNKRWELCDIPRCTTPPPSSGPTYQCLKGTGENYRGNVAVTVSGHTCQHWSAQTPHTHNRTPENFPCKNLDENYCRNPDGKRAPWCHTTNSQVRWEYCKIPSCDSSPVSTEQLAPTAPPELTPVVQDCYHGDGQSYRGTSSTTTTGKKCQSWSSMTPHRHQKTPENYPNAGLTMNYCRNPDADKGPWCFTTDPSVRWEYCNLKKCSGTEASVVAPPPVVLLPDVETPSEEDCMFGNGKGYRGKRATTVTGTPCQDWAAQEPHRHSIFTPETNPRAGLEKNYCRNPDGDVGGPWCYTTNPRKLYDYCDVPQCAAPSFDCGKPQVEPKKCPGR
# T2 sequence (P03951 388-625 limits assumed): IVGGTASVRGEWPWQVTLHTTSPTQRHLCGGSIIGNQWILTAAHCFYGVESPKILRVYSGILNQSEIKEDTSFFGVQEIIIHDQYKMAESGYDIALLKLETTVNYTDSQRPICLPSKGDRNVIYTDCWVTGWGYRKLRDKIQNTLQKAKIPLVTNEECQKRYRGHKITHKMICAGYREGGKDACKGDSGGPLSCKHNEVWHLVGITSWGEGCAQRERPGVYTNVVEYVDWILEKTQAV
# T2 sequence (P03951 19-387 partner limits assumed): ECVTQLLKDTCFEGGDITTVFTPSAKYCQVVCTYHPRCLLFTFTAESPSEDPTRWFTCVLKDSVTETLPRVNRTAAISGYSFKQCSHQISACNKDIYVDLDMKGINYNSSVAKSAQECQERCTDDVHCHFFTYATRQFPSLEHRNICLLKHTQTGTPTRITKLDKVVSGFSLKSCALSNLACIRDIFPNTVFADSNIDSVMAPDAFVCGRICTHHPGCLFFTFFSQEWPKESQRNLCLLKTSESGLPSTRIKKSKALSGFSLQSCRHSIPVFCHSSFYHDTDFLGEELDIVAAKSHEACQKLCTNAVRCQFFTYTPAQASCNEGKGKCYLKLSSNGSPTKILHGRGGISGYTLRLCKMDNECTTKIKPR
Structure (SMILES),IC50 [1],IC50 [2],aPTT [3]
"Cc1cc(C(=O)NC(C)C)ccc1-c1ccc(C[C@H](NC(=O)[C@H]2CC[C@H](CN)CC2)C(=O)Nc2ccc(-c3nnc(CCC(=O)O)[nH]3)cc2)cc1 [Example 157, 3-{5-[4-({(2S)-2-({[trans-4-(Aminomethyl)cyclohexyl]carbonyl}amino)-3-[4′-(isopropyl-carbamoyl)-2′-methylbiphenyl-4-yl]propanoyl}amino)phenyl]-4H-1,2,4-triazol-3-yl}propanoic acid hydrochloride]",1.7 nM,3.6 nM,0.33 µmol/L
"Cc1cc(C(=O)NC(C)C)ccc1-c1ccc(C[C@H](NC(=O)[C@H]2CC[C@H](CN)CC2)C(=O)Nc2ccc(-c3nn[nH]n3)c(F)c2)cc1 [Example 96, 4′-[(2S)-2-({[trans-4-(Aminomethyl)cyclohexyl]carbonyl}amino)-3-{[3-fluoro-4-(2H-tetrazol-5-yl)phenyl]amino}-3-oxopropyl]-N-isopropyl-2-methylbiphenyl-4-carboxamide hydrochloride]",1.4 nM,1.3 nM,0.5 µmol/L
"Cc1cc(C(=O)NC(C)C)ccc1-c1ccc(C[C@H](NC(=O)[C@H]2CC[C@H](CN)CC2)C(=O)Nc2cc(Cl)c3cn[nH]c3c2)cc1 [Example 159, 4′-{(2S)-2-({[trans-4-(Aminomethyl)cyclohexyl]carbonyl}amino)-3-[(4-chloro-1H-indazol-6-yl)amino]-3-oxopropyl}-N-isopropyl-2-methylbiphenyl-4-carboxamide hydrochloride]",0.32 nM,3.5 nM,0.36 µmol/L
"Cc1cc(C(=O)NC(C)C)ccc1-c1ccc(C[C@H](NC(=O)[C@H]2CC[C@H](CN)CC2)C(=O)Nc2cc(Cl)c3[nH]c(=O)[nH]c3c2)cc1 [Example 158, 4′-{(2S)-2-({[trans-4-(Aminomethyl)cyclohexyl]carbonyl}amino)-3-[(7-chloro-2-oxo-2,3-dihydro-1H-benzimidazol-5-yl)amino]-3-oxopropyl}-N-isopropyl-2-methylbiphenyl-4-carboxamide hydrochloride]",0.43 nM,3.8 nM,0.1 µmol/L
"Cc1cc(C(=O)NC2CC2)ccc1-c1ccc(C[C@H](NC(=O)[C@H]2CC[C@H](CN)CC2)C(=O)Nc2ccc3[nH]nnc3c2)cc1 [Example 141, 4′-[(2S)-2-({[trans-4-(Aminomethyl)cyclohexyl]carbonyl}amino)-3-(1H-benzotriazol-5-ylamino)-3-oxopropyl]-N-cyclopropyl-2-methylbiphenyl-4-carboxamide hydrochloride]",1.6 nM,3.9 nM,0.30 µmol/L
"Cc1cc(C(=O)NC2CCC2)ccc1-c1ccc(C[C@H](NC(=O)[C@H]2CC[C@H](CN)CC2)C(=O)Nc2ccc(-c3nnn[nH]3)cc2)cc1 [Example 138, 4′-[(2S)-2-({[trans-4-(Aminomethyl)cyclohexyl]carbonyl}amino)-3-oxo-3-{[4-(1H-tetrazol-5-yl)phenyl]amino}propyl]-N-cyclobutyl-2-methylbiphenyl-4-carboxamide hydrochloride]",2.3 nM,0.84 nM,0.25 µmol/L
"Cc1cc(C(=O)NC(C)CO)ccc1-c1ccc(C[C@H](NC(=O)[C@H]2CC[C@H](CN)CC2)C(=O)Nc2ccc(-c3nnn[nH]3)cc2)cc1 (stereo partly drawn) [Example 139, 4′-[(2S)-2-({[trans-4-(Aminomethyl)cyclohexyl]carbonyl}amino)-3-oxo-3-{[4-(1H-tetrazol-5-yl)phenyl]amino}propyl]-N-(1-hydroxypropan-2-yl)-2-methylbiphenyl-4-carboxamide hydrochloride]",13 nM,4.1 nM,0.17 µmol/L
"CC(C)NC(=O)c1ccc(-c2ccc(C[C@H](NC(=O)[C@H]3CC[C@H](CN)CC3)C(=O)Nc3ccc4[nH]c(=O)[nH]c4c3)cc2)c(Cl)c1 [Example 137, 4′-{(2S)-2-({[trans-4-(Aminomethyl)cyclohexyl]carbonyl}amino)-3-oxo-3-[(2-oxo-2,3-dihydro-1H-benzimidazol-5-yl)amino]propyl}-2-chloro-N-isopropylbiphenyl-4-carboxamide hydrochloride]",2.2 nM,11 nM,0.07 µmol/L
"Cc1cc(C(=O)NC(C)C)ccc1-c1ccc(C[C@H](NC(=O)[C@H]2CC[C@H](CN)CC2)C(=O)Nc2ccc3c(c2)[nH]c(=O)n3C)cc1 [Example 140, 4′-{(2S)-2-({[trans-4-(Aminomethyl)cyclohexyl]carbonyl}amino)-3-[(1-methyl-2-oxo-2,3-dihydro-1H-benzimidazol-5-yl)amino]-3-oxopropyl}-N-isopropyl-2-methylbiphenyl-4-carboxamide hydrochloride]",1.5 nM,13 nM,0.25 µmol/L
"Cc1cc(C(=O)NC2CCC2)ccc1-c1ccc(C[C@H](NC(=O)[C@H]2CC[C@H](CN)CC2)C(=O)Nc2ccc3c(=O)[nH][nH]c3c2)cc1 [Example 162, 4′-{(2S)-2-({[trans-4-(Aminomethyl)cyclohexyl]carbonyl}amino)-3-oxo-3-[(3-oxo-2,3-dihydro-1H-indazol-6-yl)amino]propyl}-N-cyclobutyl-2-methylbiphenyl-4-carboxamide hydrochloride]",1.1 nM,1.8 nM,0.15 µmol/L
"Cc1cc(C(=O)NC2CC(O)C2)ccc1-c1ccc(C[C@H](NC(=O)[C@H]2CC[C@H](CN)CC2)C(=O)Nc2ccc3cn[nH]c3c2)cc1 (stereo partly drawn) [Example 164, 4′-[(2S)-2-({[trans-4-(Aminomethyl)cyclohexyl]carbonyl}amino)-3-(1H-indazol-6-ylamino)-3-oxopropyl]-N-(3-hydroxycyclobutyl)-2-methylbiphenyl-4-carboxamide hydrochloride]",13 nM,7.6 nM,0.13 µmol/L
